From ChEMBL document CHEMBL1201862, “PubChem BioAssay data set” (2004) come the findings set out here.

Active and inactive are the calls of the source. Some results are limits rather than exact numbers.

Test [1] concerns the target DNA dC->dU-editing enzyme APOBEC-3G (Homo sapiens, UniProt Q9HC16). Kind of test: Dose Response confirmation of small molecule APOBEC3G DNA Deaminase Inhibitors via a fluorescence-based single-stranded DNA deaminase assay. [Related pubchem assays (depositor defined):AID493012, AID493028]. The test is classed as functional.
A further test deals with Genome polyprotein (dengue virus type 2, UniProt P29990). Kind of test: flavivirus cap methylation enzyme inhibition – biochemical, confirmation dose response, primary screen (AID 588689). Format: functional.
The target of test [2] is Tyrosine-protein kinase JAK2 (Homo sapiens, UniProt O60674). Format: functional.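 Note: JAK2 tested as one member of a kinase panel.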
Test [3] has as its target ALK tyrosine kinase receptor (Homo sapiens, UniProt Q9UM73). Format: functional.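 Note: ALK tested as one member of a kinase panel screen.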
For test [4], the target named is Serine/threonine-protein kinase pim-1 (Homo sapiens, UniProt P11309). Format: functional.
For another test, the target named is Aurora kinase A (Homo sapiens, UniProt O14965). Format: functional.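 Note: value from the Navigating the Kinome kinase panel profiling, panel entry STK6.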
Test [5] has as its target Fibroblast growth factor receptor 1 (Homo sapiens, UniProt P11362). Format: functional.
The target in test [6] is Tyrosine-protein kinase JAK3 (Homo sapiens, UniProt P52333). Format: functional.
Test [7] has as its target Glycogen synthase kinase-3 alpha (Homo sapiens, UniProt P49840). The test is classed as functional.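 Note: GSK3A result taken from a broad kinome-wide kinase panel.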
The target in test [8] is Serine/threonine-protein kinase Chk1 (Homo sapiens, UniProt O14757). The test is classed as functional.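 Note: measured as one member of a kinome-wide kinase profiling panel.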
In test [9] the target is Vascular endothelial growth factor receptor 2 (Homo sapiens, UniProt P35968). The test is classed as functional.
The target of test [10] is G protein-coupled receptor kinase 5 (Homo sapiens, UniProt P34947). In words: Navigating the Kinome. Panel member name: GPRK5. The test is classed as functional.
In test [11] the target is Leucine-rich repeat serine/threonine-protein kinase 2 (Homo sapiens, UniProt Q5S007). Format: functional.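 Note: value from a broad kinome-wide panel profiling study in which LRRK2 was one of the kinases tested.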
Another test has as its target Aurora kinase B (Homo sapiens, UniProt Q96GD4). The test is classed as functional.
Test [12] deals with Rho-associated protein kinase 1 (Homo sapiens, UniProt Q13464). Format: functional.
For test [13], the target named is Cyclin-dependent kinase 8 (Homo sapiens, UniProt P49336). In words: Navigating the Kinome. Panel member name: CDK8. The test is classed as functional.
Test [14] addresses Glycogen synthase kinase-3 beta (Homo sapiens, UniProt P49841). The test is classed as functional.
In test [15] the target is Mitogen-activated protein kinase kinase kinase kinase 4 (Homo sapiens, UniProt O95819). Format: functional.
Test [16] addresses Macrophage-stimulating protein receptor (Homo sapiens, UniProt Q04912). In words: Navigating the Kinome. Panel member name: MST1R. Format: functional.
Test [17] deals with Dual specificity tyrosine-phosphorylation-regulated kinase 1A (Homo sapiens, UniProt Q13627). The test is classed as functional.
Test [18] concerns the target Inhibitor of nuclear factor kappa-B kinase subunit epsilon (Homo sapiens, UniProt Q14164). Kind of test: Navigating the Kinome. Panel member name: IKBKE. The test is classed as functional.
Test [19] addresses Mitogen-activated protein kinase 14 (Homo sapiens, UniProt Q16539). The test is classed as functional.
Test [20] has as its target Serine/threonine-protein phosphatase PP1-alpha catalytic subunit (Homo sapiens, UniProt P62136). Kind of test: inhibition of protein phosphatase 1 activity – biochemical, fluorescence, dose response (AID 2403).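 Note: phosphatase turnover of OMFP into fluorescent 3-O-methylfluorescein.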
The next test addresses T1, Protein RecA (Mycobacterium tuberculosis, UniProt P9WHJ3).
T1 sequence (P9WHJ3 whole entry): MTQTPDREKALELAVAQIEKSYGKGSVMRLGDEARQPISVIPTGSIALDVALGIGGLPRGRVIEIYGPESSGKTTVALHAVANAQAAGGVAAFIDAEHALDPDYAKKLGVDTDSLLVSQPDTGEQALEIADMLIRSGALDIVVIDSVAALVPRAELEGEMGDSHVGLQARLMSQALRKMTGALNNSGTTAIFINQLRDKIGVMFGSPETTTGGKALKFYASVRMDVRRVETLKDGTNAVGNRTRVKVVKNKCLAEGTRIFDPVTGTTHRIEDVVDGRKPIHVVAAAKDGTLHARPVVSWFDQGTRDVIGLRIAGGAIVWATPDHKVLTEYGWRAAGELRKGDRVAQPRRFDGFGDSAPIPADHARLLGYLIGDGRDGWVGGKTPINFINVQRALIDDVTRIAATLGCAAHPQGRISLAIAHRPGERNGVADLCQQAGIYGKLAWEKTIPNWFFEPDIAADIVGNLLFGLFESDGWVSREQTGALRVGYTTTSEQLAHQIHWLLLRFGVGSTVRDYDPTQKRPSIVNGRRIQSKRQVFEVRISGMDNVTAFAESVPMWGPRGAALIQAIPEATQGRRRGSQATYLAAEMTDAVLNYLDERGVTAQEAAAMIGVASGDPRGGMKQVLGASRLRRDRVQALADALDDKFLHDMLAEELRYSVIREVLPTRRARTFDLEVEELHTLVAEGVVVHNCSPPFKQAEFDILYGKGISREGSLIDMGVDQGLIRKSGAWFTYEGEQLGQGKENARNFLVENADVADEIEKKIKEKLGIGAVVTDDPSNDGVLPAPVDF
Kind of test: Fluorescence Cell-Free Homogeneous Dose Retest to Identify Inhibitors of RecA-Intein Splicing Activity. [Related pubchem assays (depositor defined):AID2097, AID2223, AID489010, AID492950]. Format: functional.

Test [21] deals with T2, Sentrin-specific protease 8 (Homo sapiens, UniProt Q96LD8).
T2 sequence (Q96LD8 whole entry): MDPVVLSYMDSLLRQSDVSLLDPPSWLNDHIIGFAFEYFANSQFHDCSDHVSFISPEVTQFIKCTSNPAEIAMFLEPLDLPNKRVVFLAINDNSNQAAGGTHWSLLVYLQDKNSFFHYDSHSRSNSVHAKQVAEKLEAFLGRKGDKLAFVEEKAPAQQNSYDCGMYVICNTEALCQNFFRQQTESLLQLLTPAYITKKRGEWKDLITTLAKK
Format: functional.

For another test, the target named is T3, Caspase-6 (Homo sapiens, UniProt P55212).
T3 sequence (P55212 whole entry): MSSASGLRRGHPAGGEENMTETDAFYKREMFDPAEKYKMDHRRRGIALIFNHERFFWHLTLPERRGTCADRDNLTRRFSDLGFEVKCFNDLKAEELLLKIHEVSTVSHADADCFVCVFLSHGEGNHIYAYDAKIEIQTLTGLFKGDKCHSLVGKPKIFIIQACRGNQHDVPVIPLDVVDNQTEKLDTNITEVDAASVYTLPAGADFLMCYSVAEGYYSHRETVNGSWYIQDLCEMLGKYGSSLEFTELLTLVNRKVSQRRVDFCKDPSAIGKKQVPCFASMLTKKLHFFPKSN
Kind of test: inhibition of CASP6 peptide cleavage – biochemical, VEID-R110 fluorescence, cherry-pick, dose response (AID 720632).

Sequence of ALK tyrosine kinase receptor (Q9UM73 whole entry): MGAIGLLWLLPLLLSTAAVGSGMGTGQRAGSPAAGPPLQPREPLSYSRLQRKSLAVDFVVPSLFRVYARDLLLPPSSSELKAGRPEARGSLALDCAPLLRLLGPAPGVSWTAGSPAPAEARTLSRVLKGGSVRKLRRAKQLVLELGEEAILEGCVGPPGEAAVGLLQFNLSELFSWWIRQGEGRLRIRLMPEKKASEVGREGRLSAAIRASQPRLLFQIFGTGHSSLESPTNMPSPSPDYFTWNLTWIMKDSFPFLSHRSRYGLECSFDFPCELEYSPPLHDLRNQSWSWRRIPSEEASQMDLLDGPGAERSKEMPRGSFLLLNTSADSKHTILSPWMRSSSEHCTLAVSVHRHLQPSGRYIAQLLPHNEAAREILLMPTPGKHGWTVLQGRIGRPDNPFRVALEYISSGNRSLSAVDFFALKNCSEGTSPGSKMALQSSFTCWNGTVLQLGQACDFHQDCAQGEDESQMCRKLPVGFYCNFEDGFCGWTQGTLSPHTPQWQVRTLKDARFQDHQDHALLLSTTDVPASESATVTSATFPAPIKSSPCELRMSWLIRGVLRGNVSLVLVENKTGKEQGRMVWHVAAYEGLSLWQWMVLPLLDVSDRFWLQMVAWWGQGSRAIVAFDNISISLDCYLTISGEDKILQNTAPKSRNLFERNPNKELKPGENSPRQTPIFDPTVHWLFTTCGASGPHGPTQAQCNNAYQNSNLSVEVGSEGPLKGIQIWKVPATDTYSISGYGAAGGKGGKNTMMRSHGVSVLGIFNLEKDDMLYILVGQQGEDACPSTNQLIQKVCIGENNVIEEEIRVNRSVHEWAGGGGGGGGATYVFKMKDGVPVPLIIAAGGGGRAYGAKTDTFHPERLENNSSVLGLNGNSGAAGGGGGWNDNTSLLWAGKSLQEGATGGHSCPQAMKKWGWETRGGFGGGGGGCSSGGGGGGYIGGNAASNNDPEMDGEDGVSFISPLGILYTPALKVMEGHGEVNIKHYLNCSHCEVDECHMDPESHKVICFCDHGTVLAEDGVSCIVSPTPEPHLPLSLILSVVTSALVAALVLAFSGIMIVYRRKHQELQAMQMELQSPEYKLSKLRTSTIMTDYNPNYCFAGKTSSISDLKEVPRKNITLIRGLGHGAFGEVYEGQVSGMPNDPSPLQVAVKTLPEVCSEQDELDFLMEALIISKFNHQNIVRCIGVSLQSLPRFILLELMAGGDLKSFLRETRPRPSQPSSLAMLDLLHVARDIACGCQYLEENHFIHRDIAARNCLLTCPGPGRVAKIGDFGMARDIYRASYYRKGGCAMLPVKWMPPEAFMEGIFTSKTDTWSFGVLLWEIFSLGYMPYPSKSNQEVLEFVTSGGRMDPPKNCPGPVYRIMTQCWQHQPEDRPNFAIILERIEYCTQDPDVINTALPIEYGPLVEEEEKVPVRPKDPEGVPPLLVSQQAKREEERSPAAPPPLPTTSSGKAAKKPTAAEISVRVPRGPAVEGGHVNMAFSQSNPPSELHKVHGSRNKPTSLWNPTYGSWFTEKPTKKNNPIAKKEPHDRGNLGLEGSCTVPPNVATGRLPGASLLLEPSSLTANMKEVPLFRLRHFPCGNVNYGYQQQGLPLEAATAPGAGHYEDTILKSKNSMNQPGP
Sequence of Aurora kinase B (Q96GD4 whole entry): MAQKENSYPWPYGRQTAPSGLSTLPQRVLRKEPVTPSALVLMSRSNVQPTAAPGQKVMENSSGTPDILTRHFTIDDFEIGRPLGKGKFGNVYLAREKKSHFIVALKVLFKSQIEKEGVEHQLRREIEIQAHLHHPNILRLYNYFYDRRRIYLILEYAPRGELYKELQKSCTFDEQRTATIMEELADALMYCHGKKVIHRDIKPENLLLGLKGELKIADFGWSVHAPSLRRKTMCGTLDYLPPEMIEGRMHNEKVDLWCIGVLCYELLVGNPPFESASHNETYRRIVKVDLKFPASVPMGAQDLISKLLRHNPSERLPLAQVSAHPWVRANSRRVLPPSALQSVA
Sequence of Mitogen-activated protein kinase kinase kinase kinase 4 (O95819 whole entry): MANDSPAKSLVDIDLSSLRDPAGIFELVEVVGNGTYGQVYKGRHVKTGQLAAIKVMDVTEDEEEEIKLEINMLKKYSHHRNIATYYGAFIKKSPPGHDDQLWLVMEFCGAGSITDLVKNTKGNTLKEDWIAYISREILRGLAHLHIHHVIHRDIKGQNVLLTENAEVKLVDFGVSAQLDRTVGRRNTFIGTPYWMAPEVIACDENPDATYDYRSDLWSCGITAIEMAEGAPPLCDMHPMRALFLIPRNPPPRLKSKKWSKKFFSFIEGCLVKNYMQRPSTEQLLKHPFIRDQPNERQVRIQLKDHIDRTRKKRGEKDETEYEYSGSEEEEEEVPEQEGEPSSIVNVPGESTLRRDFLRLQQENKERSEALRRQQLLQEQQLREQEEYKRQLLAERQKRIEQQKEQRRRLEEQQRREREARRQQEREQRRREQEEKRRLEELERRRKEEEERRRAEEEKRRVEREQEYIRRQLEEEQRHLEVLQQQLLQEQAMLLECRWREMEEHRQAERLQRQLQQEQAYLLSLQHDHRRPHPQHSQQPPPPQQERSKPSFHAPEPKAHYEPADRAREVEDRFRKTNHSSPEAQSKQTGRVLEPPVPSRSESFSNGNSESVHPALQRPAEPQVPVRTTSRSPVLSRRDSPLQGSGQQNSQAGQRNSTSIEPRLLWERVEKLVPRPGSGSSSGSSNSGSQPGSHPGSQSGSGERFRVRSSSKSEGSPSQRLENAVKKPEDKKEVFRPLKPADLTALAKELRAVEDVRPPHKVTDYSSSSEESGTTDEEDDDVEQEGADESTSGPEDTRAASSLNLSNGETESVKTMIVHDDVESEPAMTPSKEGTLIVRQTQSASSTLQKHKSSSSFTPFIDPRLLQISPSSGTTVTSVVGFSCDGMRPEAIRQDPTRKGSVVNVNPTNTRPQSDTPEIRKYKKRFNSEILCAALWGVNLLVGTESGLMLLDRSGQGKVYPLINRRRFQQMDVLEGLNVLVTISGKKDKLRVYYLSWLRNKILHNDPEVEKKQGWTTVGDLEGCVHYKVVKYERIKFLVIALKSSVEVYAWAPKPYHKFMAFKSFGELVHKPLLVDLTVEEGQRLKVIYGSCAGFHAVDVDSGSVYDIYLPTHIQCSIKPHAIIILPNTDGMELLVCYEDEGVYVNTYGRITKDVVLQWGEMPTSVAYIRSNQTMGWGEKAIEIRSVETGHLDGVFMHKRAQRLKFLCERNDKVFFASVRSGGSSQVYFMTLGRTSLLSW
Sequence of Inhibitor of nuclear factor kappa-B kinase subunit epsilon (Q14164 whole entry): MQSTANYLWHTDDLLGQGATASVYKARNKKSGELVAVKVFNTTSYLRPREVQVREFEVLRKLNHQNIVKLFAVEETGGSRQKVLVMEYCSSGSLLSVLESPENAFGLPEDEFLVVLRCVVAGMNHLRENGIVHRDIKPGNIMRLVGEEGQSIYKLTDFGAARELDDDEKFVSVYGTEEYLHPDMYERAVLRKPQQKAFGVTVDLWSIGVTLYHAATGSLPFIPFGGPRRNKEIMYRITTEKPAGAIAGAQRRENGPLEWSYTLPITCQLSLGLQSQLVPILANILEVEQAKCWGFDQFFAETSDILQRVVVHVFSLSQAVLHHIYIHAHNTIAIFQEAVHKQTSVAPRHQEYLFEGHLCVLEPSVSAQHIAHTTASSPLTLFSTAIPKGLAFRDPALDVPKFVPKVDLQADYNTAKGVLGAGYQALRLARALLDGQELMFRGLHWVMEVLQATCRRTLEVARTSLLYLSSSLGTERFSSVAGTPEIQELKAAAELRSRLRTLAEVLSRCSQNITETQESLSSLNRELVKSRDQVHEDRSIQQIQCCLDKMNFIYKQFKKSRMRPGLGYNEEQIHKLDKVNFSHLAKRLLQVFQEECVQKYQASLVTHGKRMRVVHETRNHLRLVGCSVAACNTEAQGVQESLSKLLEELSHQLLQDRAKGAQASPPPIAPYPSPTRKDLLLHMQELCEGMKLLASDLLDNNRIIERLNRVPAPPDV
Sequence of Glycogen synthase kinase-3 beta (P49841 whole entry): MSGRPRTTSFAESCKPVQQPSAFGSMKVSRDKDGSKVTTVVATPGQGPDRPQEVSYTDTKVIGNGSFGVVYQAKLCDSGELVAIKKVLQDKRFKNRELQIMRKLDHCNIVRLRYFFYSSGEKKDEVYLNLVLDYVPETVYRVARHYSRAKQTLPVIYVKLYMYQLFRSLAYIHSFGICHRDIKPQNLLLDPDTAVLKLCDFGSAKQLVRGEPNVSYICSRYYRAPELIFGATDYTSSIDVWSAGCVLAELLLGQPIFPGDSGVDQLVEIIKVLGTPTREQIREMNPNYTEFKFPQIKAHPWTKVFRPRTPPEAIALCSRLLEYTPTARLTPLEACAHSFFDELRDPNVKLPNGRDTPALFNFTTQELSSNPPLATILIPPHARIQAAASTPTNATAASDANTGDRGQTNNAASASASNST
Sequence of Mitogen-activated protein kinase 14 (Q16539 whole entry): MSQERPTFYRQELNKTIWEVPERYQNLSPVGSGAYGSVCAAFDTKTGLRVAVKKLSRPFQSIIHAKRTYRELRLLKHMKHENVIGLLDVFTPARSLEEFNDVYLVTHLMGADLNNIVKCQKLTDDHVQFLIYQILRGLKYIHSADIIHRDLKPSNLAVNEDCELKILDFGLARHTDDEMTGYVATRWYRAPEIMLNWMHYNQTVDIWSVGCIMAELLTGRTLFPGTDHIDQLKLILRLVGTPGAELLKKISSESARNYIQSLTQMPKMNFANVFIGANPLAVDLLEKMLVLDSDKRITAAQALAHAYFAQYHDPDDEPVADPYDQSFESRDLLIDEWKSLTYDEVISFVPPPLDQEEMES
Sequence of Serine/threonine-protein kinase pim-1 (P11309 whole entry): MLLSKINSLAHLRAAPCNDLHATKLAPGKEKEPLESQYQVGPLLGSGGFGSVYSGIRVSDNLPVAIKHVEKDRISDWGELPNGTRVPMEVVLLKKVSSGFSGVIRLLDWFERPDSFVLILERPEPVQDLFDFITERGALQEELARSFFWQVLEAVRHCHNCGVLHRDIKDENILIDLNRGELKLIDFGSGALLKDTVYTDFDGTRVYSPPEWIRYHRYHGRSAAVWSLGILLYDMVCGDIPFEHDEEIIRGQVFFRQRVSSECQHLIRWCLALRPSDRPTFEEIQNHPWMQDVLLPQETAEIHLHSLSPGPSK

`CC(=O)N(C1=C(Cl)C(=O)c2ccccc2C1=O)c1ccc(C(=O)O)cc1`: the IC50 in test [1] was 8.03 µM (active); on Genome polyprotein, 5.89 µM (active).
On to `Cc1ccc(-c2cc3nc(Br)cnc3[nH]2)cc1`, for which the Ki in test [2] was > 2.51 µM (inactive); in test [3] it was > 6.31 µM (inactive); in test [4] it was > 6.31 µM (inactive); on Aurora kinase A it was > 1.58 µM (inactive); in test [5], > 3.98 µM (inactive); in test [6] it was > 5.01 µM (inactive). Besides, the Ki in test [7] is > 3.98 µM (inactive); in test [8], > 3.16 µM (inactive); in test [9] it was 1.26 µM (active); in test [10], > 3.98 µM (inactive); in test [11] it was > 2.51 µM (inactive); at Aurora kinase B it was 0.794 µM (active). Moreover, the Ki was > 3.98 µM (inactive) in test [12]; > 3.98 µM (inactive) in test [13]; > 3.98 µM (inactive) in test [14]; > 5.01 µM (inactive) in test [15]; > 3.98 µM (inactive) in test [16]; > 2 µM (inactive) in test [17]. Also, the Ki in test [18] is > 3.16 µM (inactive); in test [19] it was > 3.98 µM (inactive).
As to `CC1(C)C=C2C(=NN(c3ccccc3)C(N)=C2C#N)CO1`, the values for the half-maximal inhibitory concentration (IC50) in test [20] and in test [21] were 55.8 µM (not active) and 0.0173 µM (active), respectively. For the same molecule, the EC50 at Protein RecA was 0.297 µM (active). Besides, the AC50 on Caspase-6 was 1.07 µM (active).

In general, IC50 refers to the midpoint of a concentration-inhibition curve. A word on the Ki: it is a measure of affinity in units of concentration, obtained from inhibition or displacement. The term EC50 denotes the concentration that produces a half-maximal response. As a reminder, the AC50 is the concentration giving half of the maximal activity seen.
